{"source": "patent US12612412B2", "about": "“Antiviral heterocyclic compounds” (Enanta Pharmaceuticals, Inc., priority 2021, dated 2026)"}
{"tested_on": "genotype A, \"Long\" strain RSV", "experiment": "RSV-A assay (CPE protection in Hep-2 cells, ATPlite readout)", "type": "cell-based, Human respiratory syncytial virus (HRSV)", "conditions": "human respiratory syncytial virus, RSV-A Long strain, MOI 0.1, CPE protection, read-out: Human RSV-A (“Long”) EC50", "summary_of_the_method": "(§1)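 ATPlite luminescence (cellular ATP) served as the measure of cell health after 5 days of infection. Hep-2 cells at 8,000 per well received duplicate 2-fold compound dilutions plus virus at MOI 0.1, and EC50 was calculated from CPE protection.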", "units": {"EC50": "nM"}}
{"compound": "[2H]C([2H])([2H])c1nc2c(OC)cc(C(=O)NC[C@](O)(c3cc4c(c(-c5cc(Cl)c(F)cc5F)n3)OC[C@]4(C)C(N)=O)C3CC3)cc2cc1Cl", "note": "[Example 1287]", "EC50": "< 200"}
{"compound": "COc1cc(C(=O)NC[C@](O)(c2cc3c(c(-c4cc(F)cc(Cl)c4Cl)n2)OC[C@]3(C)C(N)=O)C2CC2)cc2cn(C3CC3)nc12", "note": "[Example 1285]", "EC50": "< 200"}
{"compound": "COc1cc(C(=O)NC[C@](O)(c2cc3c(c(-c4ccc(F)cc4)n2)OC[C@]3(C)C(=O)NC2CC2)C(F)(F)F)cc2cn(C3CC3)nc12", "note": "[Example 1172]", "EC50": "< 200"}
{"compound": "Cc1cc2cc(C(=O)NC[C@](O)(c3cc4c(c(-c5ccc(F)c(Cl)c5F)n3)OC[C@]4(C)C(N)=O)C3CC3)cc(OC3CC3)c2nc1Cl", "note": "[Example 1077]", "EC50": "< 200"}
{"compound": "Cc1cnc2c(OC(F)F)cc(C(=O)NC[C@](O)(c3cc4c(c(-c5ccc(F)c(Br)c5F)n3)OC[C@]4(C)C(N)=O)C3CC3)cc2c1", "note": "[Example 1207]", "EC50": "< 200"}
{"tested_on": "genotype A, \"Long\" strain RSV", "experiment": "RSV-A assay (CPE protection in Hep-2 cells, ATPlite readout)", "type": "cell-based, Human respiratory syncytial virus (HRSV)", "conditions": "human respiratory syncytial virus, genotype A “Long” strain RSV, MOI 0.1, CPE protection, read-out: Human RSV-A (“Long”)", "summary_of_the_method": "as §1", "units": {"EC50": "nM"}}
{"compound": "COc1cccc(-n2cc(C(=O)NC[C@](O)(c3cc4c(c(-c5ccc(F)cc5)n3)OC[C@]4(C)C(N)=O)C(F)(F)F)cn2)c1", "note": "[Example 449]", "EC50": "> 200"}
{"compound": "C[C@]1(C(N)=O)COc2c1cc([C@@](O)(CNC(=O)c1ccno1)C(F)(F)F)nc2-c1ccc(F)cc1", "note": "[Example 364]", "EC50": "> 200"}
{"compound": "C[C@]1(C(N)=O)COc2c1cc([C@@](O)(CNC(=O)c1n[nH]c3ccc(F)cc13)C(F)(F)F)nc2-c1ccc(F)cc1", "note": "[Example 397]", "EC50": "> 200"}
{"compound": "C[C@]1(C(N)=O)COc2c1cc([C@@](O)(CNC(=O)c1cc(Br)c3oc(N)nc3c1)C(F)(F)F)nc2-c1ccc(F)cc1", "note": "[Example 202]", "EC50": "< 200"}
{"compound": "C[C@]1(C(N)=O)COc2c1cc([C@@](O)(CNC(=O)c1ccn3ccnc3c1)C(F)(F)F)nc2-c1ccc(F)cc1", "note": "[Example 402]", "EC50": "> 200"}
{"compound": "C[C@]1(C(N)=O)COc2c1cc([C@@](O)(CNC(=O)c1cccc3c1OCO3)C(F)(F)F)nc2-c1ccc(F)cc1", "note": "[Example 382]", "EC50": "> 200"}
{"compound": "CC[C@@]1(C(N)=O)COc2c1cc([C@@](O)(CNC(=O)c1cc(OC)c3ncc(C(F)(F)F)cc3c1)C(F)(F)F)nc2-c1ccc(F)cc1", "note": "[Example 248]", "EC50": "> 200"}
{"compound": "COc1cc(C(=O)NC[C@](O)(c2cc3c(c(-c4ccc(F)cc4)n2)OC[C@]3(C(N)=O)C2CC2)C(F)(F)F)cc2cc(C(F)(F)F)cnc12", "note": "[Example 264]", "EC50": "> 200"}
{"compound": "CC[C@]1(C(N)=O)COc2c1cc([C@@](O)(CNC(=O)c1cc(OC)c3nn(C4CC4)cc3c1)C(F)(F)F)nc2-c1ccc(F)cc1", "note": "[Example 464]", "EC50": "< 200"}
{"compound": "Cn1cc(C(=O)NC[C@](O)(c2cc3c(c(-c4ccc(F)cc4)n2)OC[C@]3(C)C(N)=O)C(F)(F)F)c2ccccc21", "note": "[Example 373]", "EC50": "> 200"}
{"compound": "Cc1cnc2c(Nc3ccc(C(C)(C)C)nn3)cc(C(=O)NC[C@](O)(c3cc4c(c(-c5ccc(F)cc5)n3)OC[C@]4(C)C(N)=O)C(F)(F)F)cc2c1", "note": "[Example 118]", "EC50": "< 200"}
{"compound": "COc1cc(C(=O)NC[C@](O)(c2cc3c(c(-c4ccc(F)cc4)n2)OC[C@]3(CCl)C(N)=O)C(F)(F)F)cc2cc(C)c(C)nc12", "note": "[Example 233, (S)-3-(chloromethyl)-7-(4-fluorophenyl)-5-((S)-1,1,1-trifluoro-2-hydroxy-3-(8-methoxy-2,3-dimethylquinoline-6-carboxamido)propan-2-yl)-2,3-dihydrofuro[2,3-c]pyridine-3-carboxamide]", "EC50": "< 200"}
{"compound": "C[C@]1(C(N)=O)COc2c1cc([C@@](O)(CNC(=O)c1cc3cn[nH]c3cc1C1CC1)C(F)(F)F)nc2-c1ccc(F)cc1", "note": "[Example 126]", "EC50": "> 200"}
{"compound": "C[C@]1(C(N)=O)COc2c1cc([C@@](O)(CNC(=O)c1cnc3nccn3c1)C(F)(F)F)nc2-c1ccc(F)cc1", "note": "[Example 374]", "EC50": "> 200"}
{"compound": "COc1ccc2nc(C(=O)NC[C@](O)(c3cc4c(c(-c5ccc(F)cc5)n3)OC[C@]4(C)C(N)=O)C(F)(F)F)sc2c1", "note": "[Example 394]", "EC50": "> 200"}
{"compound": "C[C@]1(C(N)=O)COc2c1cc([C@@](O)(CNC(=O)c1cc(F)c3[nH]c(C4CC4)nc3c1)C(F)(F)F)nc2-c1ccc(F)cc1", "note": "[Example 93]", "EC50": "< 200"}
